# Values joined by “and” are separate entries in the source; they are usually repeats but may differ in a detail not shown here. Equal values may be shown once. Where a name gives a salt, the structure may show the parent alone.
# Experiments:
# [1] = test system: citrus greening; test: Example 1 field trial: fruit drop
# Source text: (§1) Field trial design. […] Treatments included the application of oxytetracycline (OTC) using Invaio's proprietary injection system into the scion of each tree. The trial was designed as a randomized complete blocking which three treatments were applied to each of four trees within each of six replications at three different treatment dates. […] The OTC is a commercial oxytetracycline product. One injection of OTC was made in each tree for the first two injections timings and two OTC injections were made per tree at the third application timing.
# Fruit drop. Fruit drop was determined for trees of each treatment as the number of fruit on the ground underneath each tree at each of six counting dates, approximately 2 weeks apart, beginning on October 13 and finishing prior to fruit harvest on December 21. Counted fruit were removed from the ground after each counting date. Fruit drop was recorded as an average by date and as an average across all six dates (Table 4).
# [2] = average of six replications; fruit collected December 7
# Source text: (§2) Treatments included the application of oxytetracycline (OTC) using Invaio's proprietary injection system into the scion of each tree. The trial was designed as a randomized complete blocking which three treatments were applied to each of four trees within each of six replications at three different treatment dates. […] The OTC is a commercial oxytetracycline product. One injection of OTC was made in each tree for the first two injections timings and two OTC injections were made per tree at the third application timing.
# Fruit was collected from trees of the OTC treatment by replication on December 7 and bulked according to treatment and replication to create individual fruit samples for OTC residue analysis. Similarly, fruit was collected from trees from two replications of nontreated treatments and bulked by replication to create individual fruit samples for OTC residue analysis.
# [3] = test system: citrus greening; conditions: average across six replications; harvested December 21
# Source text: as §2
# Fruit yield. Fruit yield was determined for trees of each treatment as the total weight (lbs) of fruit picked (harvested) from each tree on December 21. Fruit yield was recorded as an average by replication and as an average across all six replications (Table 3).
# [4] = test system: citrus greening; test: Example 1 field trial: BRIX analysis of fruit; conditions: fruit collected December 8
# Source text: as §1
# BRIX analysis. Fruit was collected from trees of each treatment by replication on December 8 and bulked according to treatment and replication to create individual fruit samples for BRIX analysis.
# [5] = test system: citrus greening
# Procedure: The treatment delivered 150 mg OTC-HCl per season.
# The treatment delivered 600 mg OTC-HCl per season.
SMILES,"Fruit drop (number), treatment average ([1]; average across replications and dates) [number]","Fruit drop (number), rep average across dates ([1]; average of six counting dates, by replication)","Fruit drop (number) ([1]; counting date 8-Dec, by replication)","Fruit drop (number) ([1]; counting date 9-Nov, by replication)","Fruit drop (number) ([1]; counting date 13-Oct, by replication)","Fruit drop (number) ([1]; counting date 21-Dec, by replication)","Fruit drop (number) ([1]; counting date 24-Nov, by replication)","Fruit drop (number) ([1]; counting date 28-Oct, by replication)","OTC residue in fruit, treatment average [2]","Fruit yield (lbs per tree), treatment average [3]","Brix, treatment average ([4]; average of six replications)","Brix ([4]; by replication, OTC 1.58 mg/mL, 60 ml scion injections)",yield increase over water ([5]; 150 mg OTC-HCl per season (FIG. 30)),yield increase over the nontreated controls ([5]; 600 mg OTC-HCl per season (FIG. 31)) [%]
"CN(C)[C@@H]1C(O)=C(C(N)=O)C(=O)[C@@]2(O)C(O)=C3C(=O)c4c(O)cccc4[C@@](C)(O)[C@H]3[C@H](O)[C@@H]12 [OTC, oxytetracycline]",17.8,20.9 number and 20.5 number and 16.0 number and 17.1 number and 14.5 number and 18.0 number,19.0 number and 13.3 number and 14.0 number and 12.3 number and 15.0 number and 22.8 number,31.5 number and 20.5 number and 23.8 number and 18.5 number and 22.0 number and 28.0 number,11.5 number and 8.8 number and 9.0 number and 7.3 number and 14.5 number and 14.3 number,17.5 number and 20.0 number and 16.5 number and 16.8 number and 12.0 number and 15.0 number,26.8 number and 18.3 number and 20.8 number and 21.8 number and 28.0 number,14.5 number and 18.8 number and 18.3 number and 16.3 number and 19.8 number and 15.0 number,0.007 ppm and 0.006616 ppm,48.7 lbs per tree and 50.4 lbs per tree,8.0,8.1 and 8.4 and 8 and 7.6,,
"CN(C)[C@@H]1C(O)=C(C(N)=O)C(=O)[C@@]2(O)C(O)=C3C(=O)c4c(O)cccc4[C@@](C)(O)[C@H]3[C@H](O)[C@@H]12 [OTC-HCl, oxytetracycline hydrochloride]",,,,,,,,,,,,,about 74%,~53

# Source: patent US20250374923A1 (priority 2022, published 2025)
